Article PMC8286840, “Identifying SARS-CoV-2 antiviral compounds by screening for small molecule inhibitors of Nsp3 papain-like protease” (Biochemical Journal, 2021)
Counter-ions that a name gives are not always drawn. Like-named read-outs stand apart in the source and are kept apart here.

How the values were obtained:
[1] = target: T1, SARS-CoV-2 PLpro (nsp3 1564–1878) (Severe acute respiratory syndrome coronavirus 2, UniProt P0DTD1); experiment: biochemical; design: FRET-quenched peptide (Pro3) cleavage by PLpro, 10 min pre-incubation, slope over 20 min, normalised to no-compound control; settings: high concentration screen, read-out: % of control remaining
[2] = target: T1, SARS-CoV-2 PLpro (nsp3 1564–1878); experiment: biochemical; design: FRET-quenched peptide (Pro3) cleavage by PLpro, 10 min pre-incubation, slope over 20 min, normalised to no-compound control; settings: low concentration screen, read-out: % of control remaining

CCCCC/C=C\C/C=C\C/C=C\C[C@H]1O[C@H]1CCCC(=O)O [5,6-Epoxyeicosatrienoic acid]
remaining activity at 3.75 µM ([1]; Well no.=4383): 103%
remaining activity at 1.25 µM ([2]; Well no.=4383): 105%

CN1C[C@H](CNC(=O)OCc2ccccc2)C[C@@H]2c3cccc4c3c(cn4C)C[C@H]21 [Metergoline]
remaining activity at 3.75 µM ([1]; Well no.=782): 100%
remaining activity at 1.25 µM ([2]; Well no.=782): 99.4%

CN(C)C(=O)Oc1cc(OC(=O)N(C)C)cc(C(O)CNC(C)(C)C)c1 (stereo not shown) [Bambuterol]
remaining activity at 3.75 µM ([1]; Well no.=1770): 92.8%
remaining activity at 1.25 µM ([2]; Well no.=1770): 92.4%

CC(C)(C)C#Cc1cc(N(C(=O)[C@H]2CC[C@H](C)CC2)[C@H]2CC[C@H](O)CC2)c(C(=O)O)s1 [VX-222]
remaining activity at 3.75 µM ([1]; Well no.=4903): 96.2%
remaining activity at 1.25 µM ([2]; Well no.=4903): 97.1%

CC1(C)O[C@@H]2[C@@H](CO[C@@]3(COS(N)(=O)=O)OC(C)(C)O[C@@H]23)O1 [Topiramate]
remaining activity at 3.75 µM ([1]; Well no.=4853): 104%
remaining activity at 3.75 µM ([1]; Well no.=7527): 100%
remaining activity at 1.25 µM ([2]; Well no.=4853): 101%
remaining activity at 1.25 µM ([2]; Well no.=7527): 102%

Nc1nc2[nH]cc(CCc3ccc(C(=O)N[C@@H](CCC(=O)O)C(=O)O)cc3)c2c(=O)[nH]1 [Pemetrexed Disodium Hydrate]
remaining activity at 3.75 µM ([1]; Well no.=8732): 97.8%
remaining activity at 1.25 µM ([2]; Well no.=8732): 96.6%

C[Se]CC[C@H](N)C(=O)O [L-SelenoMethionine]
remaining activity at 3.75 µM ([1]; Well no.=6681): 103%
remaining activity at 1.25 µM ([2]; Well no.=6681): 106%

CCCCCCCCOc1ccccc1C(=O)Nc1ccc(C(=O)OCC[N+](C)(CC)CC)cc1 [Otilonium Bromide]
remaining activity at 3.75 µM ([1]; Well no.=4893): 93.3%
remaining activity at 1.25 µM ([2]; Well no.=4893): 92.9%

c1ccc2c(CCNc3ccc(Nc4ccncc4)cc3)c[nH]c2c1 [Serdemetan]
remaining activity at 3.75 µM ([1]; Well no.=6730): 101%
remaining activity at 1.25 µM ([2]; Well no.=6730): 97.7%

CC(=O)N[C@@H](C)C(=O)O [Ac-Ala-OH]
remaining activity at 3.75 µM ([1]; Well no.=8696): 96.8%
remaining activity at 1.25 µM ([2]; Well no.=8696): 96.5%

CC(C)(C)C[C@@H]1N[C@@H](C(=O)N[C@H]2CC[C@H](O)CC2)[C@H](c2cccc(Cl)c2F)[C@]12C(=O)Nc1cc(Cl)ccc12 [MI-773]
remaining activity at 3.75 µM ([1]; Well no.=6488): 93%
remaining activity at 3.75 µM ([1]; Well no.=8278): 97.3%
remaining activity at 1.25 µM ([2]; Well no.=6488): 96.1%
remaining activity at 1.25 µM ([2]; Well no.=8278): 102%

COc1cc2ncnc(Nc3ccc(Cl)cc3F)c2cc1OC [4-[(4'-Chloro-2'-fluoro)phenylamino]-6,7-dimethoxyquinazoline hydrochloride]
remaining activity at 3.75 µM ([1]; Well no.=2540): 98.1%
remaining activity at 1.25 µM ([2]; Well no.=2540): 96.4%

O=C(C1CCCCC1)N1CC(=O)N2CCc3ccccc3C2C1 (stereo not shown) [Praziquantel]
remaining activity at 3.75 µM ([1]; Well no.=908): 104%
remaining activity at 3.75 µM ([1]; Well no.=2155): 100%
remaining activity at 1.25 µM ([2]; Well no.=908): 106%
remaining activity at 1.25 µM ([2]; Well no.=2155): 102%

CC(O)C(O)C1CNc2nc(N)[nH]c(=O)c2N1 [(6R)-5,6,7,8-Tetrahydro-L-biopterin hydrochloride]
remaining activity at 3.75 µM ([1]; Well no.=1383): 102%
remaining activity at 1.25 µM ([2]; Well no.=1383): 101%

OC(CCCN1CCCCC1)(c1ccccc1)c1ccccc1 [Diphenidol (hydrochloride)]
remaining activity at 3.75 µM ([1]; Well no.=7621): 102%
remaining activity at 1.25 µM ([2]; Well no.=7621): 102%

N=C(N)N/N=C/c1c(Cl)cccc1Cl [Guanabenz acetate]
remaining activity at 3.75 µM ([1]; Well no.=604): 96.2%
remaining activity at 1.25 µM ([2]; Well no.=604): 96.6%

CCCCCCCCCCCCCCCC(=O)N[C@H](CN1CCOCC1)[C@H](O)c1ccccc1 (racemic) [DL-PPMP]
remaining activity at 3.75 µM ([1]; Well no.=4591): 100%
remaining activity at 1.25 µM ([2]; Well no.=4591): 93.5%

CN1CCC(=C2c3ccccc3C=Cc3ccccc32)CC1 [Cyproheptadine (hydrochloride)]
remaining activity at 3.75 µM ([1]; Well no.=6994): 99.7%
remaining activity at 1.25 µM ([2]; Well no.=6994): 97.6%

C[C@H](NC(=O)c1cc(Cl)ccc1Oc1ccc(F)cc1)c1ccc(C(=O)O)cc1 [CJ-42794]
remaining activity at 3.75 µM ([1]; Well no.=6222): 94.2%
remaining activity at 1.25 µM ([2]; Well no.=6222): 98%

CCOC(=O)C1=C(C)NC(C)=C(C(=O)OCC)C1c1ccccc1/C=C/C(=O)OC(C)(C)C [Lacidipine]
remaining activity at 3.75 µM ([1]; Well no.=1798): 100%
remaining activity at 1.25 µM ([2]; Well no.=1798): 99.9%

O=C1Nc2ccc3ncsc3c2/C1=C/c1cnc[nH]1 [PKR Inhibitor]
remaining activity at 3.75 µM ([1]; Well no.=2511): 103%
remaining activity at 1.25 µM ([2]; Well no.=2511): 103%

CN1C(=O)[C@]23CC4=CC=C[C@H](O)[C@H]4N2C(=O)[C@@]1(CO)SS3 [Gliotoxin]
remaining activity at 3.75 µM ([1]; Well no.=3323): 95.5%
remaining activity at 1.25 µM ([2]; Well no.=3323): 94.1%

Cc1cccc(C)c1NC(=O)C1CCCCN1C (stereo not shown) [Mepivacaine HCl]
remaining activity at 3.75 µM ([1]; Well no.=4981): 101%
remaining activity at 1.25 µM ([2]; Well no.=4981): 99.3%

COc1cc2nccc(Oc3ccc(NC(=O)Nc4ccc(F)cc4F)c(F)c3)c2cc1OC [N-(2,4-Difluorophenyl)-N'-[4-[(6,7-dimethoxy-4-quinolinyl)oxy]-2-fluorophenyl]urea]
remaining activity at 3.75 µM ([1]; Well no.=2572): 98.1%
remaining activity at 1.25 µM ([2]; Well no.=2572): 92%

CCn1nnc2c(N3CCOCC3)nc(-c3ccc(NC(=O)Nc4ccc(C(=O)N5CCN(C)CC5)cc4)cc3)nc21 [PKI-402]
remaining activity at 3.75 µM ([1]; Well no.=4699): 101%
remaining activity at 1.25 µM ([2]; Well no.=4699): 105%

CCCC(=O)Nc1ccc(OCC(O)CNC(C)C)c(C(C)=O)c1 (stereo not shown) [Acebutolol (hydrochloride)]
remaining activity at 3.75 µM ([1]; Well no.=6747): 97.2%
remaining activity at 1.25 µM ([2]; Well no.=6747): 101%

CCn1nc(C(=O)O)c(=O)c2cc3c(cc21)OCO3 [Cinoxacin]
remaining activity at 3.75 µM ([1]; Well no.=332): 96.9%
remaining activity at 1.25 µM ([2]; Well no.=332): 98.1%

Nc1nonc1C(=Nc1ccc(F)c(Br)c1)NO [IDO-IN-1]
remaining activity at 3.75 µM ([1]; Well no.=8359): 99.9%
remaining activity at 1.25 µM ([2]; Well no.=8359): 99.2%

Nc1ccc(S(N)(=O)=O)cc1 [Sulfanilamide]
remaining activity at 3.75 µM ([1]; Well no.=4620): 108%
remaining activity at 3.75 µM ([1]; Well no.=7540): 93.1%
remaining activity at 1.25 µM ([2]; Well no.=4620): 106%
remaining activity at 1.25 µM ([2]; Well no.=7540): 94.6%

COc1ccc2c(c1OC)CN1CCc3cc4c(cc3C1C2)OCO4 (stereo not shown) [Tetrahydroberberine]
remaining activity at 3.75 µM ([1]; Well no.=6656): 99.7%
remaining activity at 1.25 µM ([2]; Well no.=6656): 97.9%

C[C@]1(C(=O)O)[C@@H]2CC[C@@H](O2)[C@@]1(C)C(=O)O [Cantharidic Acid]
remaining activity at 3.75 µM ([1]; Well no.=378): 88.7%
remaining activity at 1.25 µM ([2]; Well no.=378): 87.8%

CNC(=O)c1cc(COc2nnc(Nc3ccc(Cl)cc3)c3ccoc23)ccn1 [Telatinib (BAY 57-9352)]
remaining activity at 3.75 µM ([1]; Well no.=4858): 104%
remaining activity at 1.25 µM ([2]; Well no.=4858): 99.7%

CN(C)C(=N)NC(=N)N [Metformin]
remaining activity at 3.75 µM ([1]; Well no.=1627): 103%
remaining activity at 1.25 µM ([2]; Well no.=1627): 103%

COc1cccc(CNc2ccc(S(=O)(=O)Nc3nc4ccccc4s3)cc2)c1O [ML355]
remaining activity at 3.75 µM ([1]; Well no.=7648): 96.7%
remaining activity at 1.25 µM ([2]; Well no.=7648): 97.9%
